Assays:
[1] = Dephosphorylation of purified phosphorylated AMPK peptide
Experimental: Unless otherwise stated, all solvents and materials were purchased from either Sigma Aldrich, Fisher Scientific or Fluorochem and were used without further purification. ^1H, ^13C, DEPT-135 and DEPT-90 NMR data was recorded on either a Bruker Fourier 300 MHz or Bruker Avance III (AVIII) 400 MHz spectrometer or a Bruker Avance Neo 600 MHz NMR spectrometer. Mass spectra were obtained on an Agilent 6210 TOF MS with electrospray ionisation operating in positive ion mode and mass spectra of metal complexes were obtained on a Bruker Micro TOF-q LC mass spectrometer with electrospray ionisation operating in positive ion mode. Phosphorylated ‘SAMS’ peptide HMRSAMS*GLHLVKRR (phosphorylated on the serine residue) was obtained from PeptideSynthetics, Peptide Protein Research Ltd (>95% purity).
There are several potential mechanisms which could lead the observed kinase inhibition ‘readout’ of this screen including, i) direct ATP hydrolysis by the complex(es) and differing Km of the kinases for ATP, and, ii) dephosphorylation of the peptide substrate by the phosphatase activity of the Zn^2+ complex resulting in cycles of peptide phosphorylation by active recombinant enzyme and dephosphorylation by the complex.

HCT116 cancer cells = assay: Immunoblot of cellular proteins after treatment; format: cell-based, human; settings: 5 μM, 40 h
Experimental: (§1) FIG. 12. Immunoblots showing the differential effects of [L2Cu3]^6+ and [L2Zn3]^6+ treatment of HCT116 cancer cells and ARPE19 non-cancer cells on key cellular proteins associated with cellular and metabolic stress. Representative immunoblot images of the indicated proteins following cell exposure to 5 μM [L2Cu3]^6+ or [L2Zn3]^6+ for 40 h. Tyrosine phosphorylated proteins are indicated using a pan-phospho-Tyr antibody; β-actin as a loading control.
(§2) Protein lysates and recombinant proteins were resolved on 15% SDS polyacrylamide gels. Proteins were electroblotted onto nitrocellulose membrane by wet transfer in 1×Tris Glycine buffer (Biorad) at 35 mA overnight at room temperature (Allison et al., 2014). After blocking of membranes, these were incubated with primary antibody overnight at 4° C. before addition of rabbit or mouse secondary antibody (HRP-conjugated) for 1 h at room temperature and development of blots by enhanced chemiluminescence. Primary antibodies were: anti-Src (total) (Cell Signalling Technology #2123 1:1000), anti-phosphorylated Src (Y527) (Cell Signalling Technology #21055 1:1000), anti-phosphorylated Src (Y416) (Cell Signalling Technology #69435 1:1000), anti-AMPKα (total) (Cell Signalling Technology #2532 1:1000), anti-phosphorylated AMPKα (T172) (Cell Signalling Technology […] 1:1000), anti-phospho-Tyr (pan) (Cell Signalling Technology #8954 1:2000), anti-p53 (Santa Cruz, DO-1 clone, 1:1000), anti-β-actin (Merck MAB1501, 1:40,000). Quantification of signals was performed by densitometry using Image J software.

ARPE19 non-cancer cells = assay: Immunoblot of cellular proteins after treatment; format: cell-based, human; settings: 5 μM, 40 h
Experimental: as §1, §2

140 human kinases = assay: Cell-free screen of 140 kinases (33P ATP, Premier Screen); format: biochemical; settings: 10 μM complex
Experimental: FIG. 9. Effects of [L2Zn3]^6+ and [L2Cu3]^6+ on the activity of purified human kinases. a,b, Percentage inhibition of the indicated kinases by [L2Zn3]^6+ (a) and [L2Cu3]^6+ (b) respectively at a concentration of 10 μM; full results are presented in the ESI. c,d, Kinases whose activity is stimulated by [L2Zn3]^6+ (c) or [L2Cu3]^6+ (d) complexes. e,f, Kinome map showing kinases inhibited (red) or stimulated (green) by [L2Zn3]^6+ (e) or [L2Cu3]^6+ (f). III ustration reproduced courtesy of Cell Signalling Technology Inc (www.cellsignal.com)
FIG. 16. The effect of [L2Zn3]^6+ and [L2Cu3]^6+ on the activity of recombinant human kinases. The compounds were submitted to the MRC Protein Phosphorylation and Ubiquitination Unit International Centre for Kinase Profiling (University of Dundee) and tested at a concentration of 10 μM against 140 human kinases (Premier Screen).
Given the ability of the Zn^2+ complex to dephosphorylate amino acids serine, tyrosine and threonine (FIG. 6) and the Cu^2+ complex to bind phenyl phosphate (FIG. 3), it was examined whether the complexes affect the activity of kinases. This was assessed in a cell-free screen of 140 kinases using purified recombinant human kinases and substrate peptides incubated in the presence of ^33P ATP and 10 μM complex or solvent control. […]

[Cu+2].[Cu+2].[Cu+2].c1ccc(-c2csc(NCCN(CCNc3nc(-c4ccccn4)cs3)CCNc3nc(-c4ccccn4)cs3)n2)nc1.c1ccc(-c2csc(NCCN(CCNc3nc(-c4ccccn4)cs3)CCNc3nc(-c4ccccn4)cs3)n2)nc1 [[L2Cu3]^6+]
dephosphorylation of phosphorylated AMPK peptide [1]: neither complex resulted in dephosphorylation | increase in p53 levels (HCT116 cancer cells): ~1.7 fold | p53 levels (ARPE19 non-cancer cells): decreased | inhibition of the most potently inhibited kinases (140 human kinases): ~100%

[Zn+2].[Zn+2].[Zn+2].c1ccc(-c2csc(NCCN(CCNc3nc(-c4ccccn4)cs3)CCNc3nc(-c4ccccn4)cs3)n2)nc1.c1ccc(-c2csc(NCCN(CCNc3nc(-c4ccccn4)cs3)CCNc3nc(-c4ccccn4)cs3)n2)nc1 [[L2Zn3]^6+]
dephosphorylation of phosphorylated AMPK peptide [1]: neither complex resulted in dephosphorylation | cellular p-T172 AMPKα relative to total AMPKα levels (HCT116 cancer cells): increased | increase in p53 levels (HCT116 cancer cells): ~2.7 fold | decrease in total levels of Tyr-phosphorylated proteins (HCT116 cancer cells; pan phospho-tyrosine antibody): ~10% | p53 levels (ARPE19 non-cancer cells): decreased | inhibition of the most potently inhibited kinases (140 human kinases): ~100%

— patent US20230322815A1, “NOVEL COMPOUNDS AND THERAPEUTIC USES THEREOF” (University of Huddersfield, priority 2020, published 2023)
